Data on 17 compounds can be found in patent US8652799B2, “Method of detecting bioactive molecules in a fluid sample” (priority 2008, dated 2014).

Common to all, as to format: cell-based
For assay [1], the system named is Anabaena sp. The assay can be described thus: Detection of bioactive molecules with Anabaena sp.: inhibition of photosynthetic fluorescence (Luminotox). The conditions noted are these: 1 ppm, neutral pH; for inhibition at 1 ppm: 10 min. The method, then:
The photosynthetic efficiency is determined with the following formula (F2−F1)/F2. Any molecule affecting directly or indirectly the photosystems modify either F1 or F2 which modification necessarily decreases the photosynthetic efficiency. The inhibition curve of a particular molecule is determined by calculating the activity of the photosystems in the absence of the molecule and in the presence of the molecule and comparing both efficiency as follows as described in Conrad 1993:
Without Inhibitor (wi): efficiency(wi)=(F2(wi)−F1(wi)/F2(wi) With Inhibitor: Relative photosynthetic efficiency(sample)=(F2(sample)−F1(sample))/F2(wi) Percentage Efficiency: efficiency (%)=(efficiency(sample)×100)/efficiency(wi) Percentage Inhibition: Inhibition (%)=100−efficiency (%)
An Anabaena sp. culture was prepared as described in Example 3 above. As indicated in Example 3, the cyanobacteria were reactivated before testing under ambient light and at room temperature during 60 minutes.
The culture was then incubated with bioactive molecules listed in Table 1 below at concentrations of 1 ppm (except for atrazine which was used at a concentration of 1 ppb) for 10 minutes under ambient light followed by 10 minutes under green light and neutral pH. The cellular concentration was 1.0×10^7 cells/mL (100 μL of cyanobacteria within 2 mL of bioactive agent containing aqueous solution (i.e. distilled water)). Testing was performed in triplicates. The fluorescence emitted by each formulation was then measured with Luminotox™ a fluorometer that measures photosynthetic activity.

Assay [2] relates to Chlorella vulgaris. The conditions noted are these: for Inhibition: 0.5 ppm. Here is the method:
(§1) A Chlorella vulgaris culture was prepared as described in Example 1 above. As indicated in Example 1, the algae were reactivated before testing under ambient light and at room temperature during 90 minutes.
The formulation was then incubated under ambient light at 35° C. and at neutral pH with cadmium, copper, chromium, zinc, nickel, or lead, at indicated concentrations at incubation times varying between 15 minutes and 120 minutes. (FIGS. 9 to 12). The formulations were tested without additives or with 1 ppm cadmium, 0.1 ppm copper or 0.25 ppm copper as additive. The cellular concentration was 2.5×10^6 cells/mL (50 μL of algae within 2 mL of metal containing aqueous solution (i.e. distilled water)). Testing was performed in triplicates. The fluorescence emitted by each formulation was then measured with Luminotox™, a fluorometer that measures photosynthetic activity.

The test system of assay [3] is Chlorella vulgaris. The method, then:
The algae concentration was 5×10^6 cells/mL (100 μL of algae within 2 mL of aqueous solution (i.e. distilled water)) containing the substance to detect at indicated concentrations. For each substances, 5 concentrations in triplicates were tested. The TOXSTAT™ software was used to calculate from inhibition values and standard deviations obtained, the maximum concentration without observable effect and the minimal concentration with observable effects. The threshold was calculated with the following formula: (maximum concentration without observable effect x minimal concentration with observable effects)^1/2 (See Table 2 below). The temperature was controlled by a thermostatic bath.
(§2) The detection threshold was obtained with the geometric mean. It was calculated with the following formula: Detection threshold=(CSEO×CMEO)^1/2 where
(§3) CMEO=minimal concentration resulting in a detectable inhibition of the algae efficacy.
(§4) CSEO and CMEO were estimated by a variance analysis ANNOVA™ followed by a Dunnett multiple comparison by comparing the mean efficacy of each tested concentration with the control mean. Calculations were performed with TOXSTAT™ (Version 3.5).

Assay [4] relates to Chlorella vulgaris. Kind of assay: Stability of F2 fluorescence of Chlorella vulgaris incubated with additives. Here is the method:
F2 fluorescence levels produced by Chlorella vulgaris prepared as described in Example 1 above was measured after incubation with additives tested above, namely cadmium (0.5 ppm), cadmium (1 ppm), copper (0.1 ppm) and copper (0.25 ppm). As may be seen in FIG. 8, F2 fluorescence was stable after up to 120 minutes of incubation for each of these additives.

In assay [5] the test system is Dunaliella tertiolecta. The following applies: 15 min. green light exposition at room temperature. Here is the method:
as §2, §3, §4
A Dunaliella tertiolecta culture was prepared as described in Example 2 above. As indicated in Example 2, the algae were reactivated before testing under ambient light and at room temperature during 45 minutes.
The algae formulations were then incubated for 15 minutes with water containing one of the various contaminants listed in Table 2 below at neutral pH under green light and at room temperature. The algae concentration was 350 000 cells/mL (500 μL of algae within 2 mL of aqueous solution (i.e. distilled water) containing substance to detect at indicated concentrations). For each substances, 5 concentrations in triplicates were tested. The TOXSTAT™ software was used to calculate from inhibition values and standard deviations obtained, the maximum concentration without observable effect and the minimal concentration with observable effects (See Table 2 below). The temperature was controlled by a thermostatic bath. Tests were performed in triplicates. The fluorescence emitted by each formulation was then measured with Luminotox™, a fluorometer that measures photosynthetic activity and detection threshold determined as described in the Example above.

For assay [6], the system named is Chlorella vulgaris. The assay can be described thus: Detection of lead with Chlorella vulgaris with single additives or additive mixtures. The method, then: as §1
The formulation was then incubated under ambient light at 35° C. and at neutral pH with lead, at indicated concentrations and at incubation times varying between 15 minutes and 120 minutes (FIGS. 13 to 16). The formulations were tested with or without additives used as single additives (Cd 1 ppm, Cu 0.1 ppm and Cu 0.25 ppm) or mixes of additives (Cu 0.1 ppm+Cd 0.5 ppm; Cu 0.1 ppm+Cd 1 ppm; Cu 0.25 ppm+Cd 1 ppm). The cellular concentration was 2.5×10^6 cells/mL (50 μL of algae within 2 mL of lead containing aqueous solution (i.e. distilled water) with or without additives). Testing was performed in triplicates. The fluorescence emitted by each formulation was then measured with Luminotox™ a fluorometer that measures photosynthetic activity.

For assay [7], the system named is Chlorella vulgaris. Kind of assay: Effect of pH on detection of ammoniacal nitrogen with Chlorella vulgaris. The following applies: for Concentration of NH3 at which 20% inhibition was achieved: 10 min green light, room temperature. The method, then:
A Chlorella vulgaris culture was prepared as described in Example 1 above. As indicated above, the algae were reactivated before testing during 90 minutes under ambient light and at room temperature.
The culture was then incubated with ammoniacal nitrogen for 10 minutes under green light and at room temperature. The desired pH was achieved by adding NaOH to a glycine 20 mM buffer. The cellular concentration of the algae was 5×10^6 cells/mL of solution (100 μL algae in 2 mL of ammoniacal nitrogen containing aqueous solution (i.e. distilled water)). Testing was performed in triplicates. The fluorescence emitted by each formulation was then measured with Luminotox™, a fluorometer that measures photosynthetic activity. Although the Luminotox™ was used in Examples presented herein, any fluorometer able to measure […] can be used in accordance with the present invention.

The subject of assay [8] is Chlorella vulgaris. Kind of assay: Inhibition of fluorescence emission of Chlorella vulgaris incubated at 35° C. The following applies: 15 minutes. Here is the method: The present invention also concerns a method for ammonia nitrogen detection comprising changing algal cell permeability. This compound is detected at 100 ppm at neutral pH but the increment of pH up to 11 decreases the threshold to 1 ppm. Algal permeability can also be modified by increasing the incubation temperature of the assay. For example, fluorescence emission is inhibited in 15 minutes by copper ions, tetracycline and progesterone if Chlorella vulgaris is incubated at 35° C., while at room temperature the detection of these compounds in 15 minutes was possible when these compounds are present at higher concentrations. Chlorella vulgaris is a freshwater alga and is used for freshwater monitoring while Dunaliella tertiolecta is used of for marine water monitoring.

[9] abbreviates: 10 min ambient light followed by 10 min green light, read-out: Inhibition obtained at 1 ppm (followed by 10 min green light).
Where [10] appears, read: 10 min ambient light, 1.0×10^7 cells/mL, read-out: Inhibition obtained at 1 ppm (10 min ambiant light).
Setting [11] is: 10-15 min. exposition to ambiant light at 35° C., neutral pH (pH 7), 5×10^6 cells/mL.
[12] abbreviates: 1 ppm, 60 minutes of incubation, without additive.
The mark [13] stands for this setting: neutral pH (pH 7), 350 000 cells/mL.
Where [14] appears, read: 10 min ambient light followed by 10 min green light.
Setting [15] is: 10 min ambient light, 1.0×10^7 cells/mL.

Read-outs that look alike come from different tables or passages of the source.

For `CC(C)N1C(=O)c2ccccc2NS1(=O)=O` [bentazone], the inhibition at 1 ppm turned out to be 28% in assay [1] (setting [9]) and 0% in assay [1] (setting [10]).
Turning to `[Cr]` [Cr, Chrome], the Detection result in assay [2] (0.1 ppm, 60 minutes of incubation, without additive) is “detected although weakly”.
In turn, `[Cd]` [Cd, Cadmium] had a Detection threshold in assay [3] (setting [11]) of 0.3 ppm. The Detection result was “not detected” in assay [2] (1 ppm alone, 15 minutes of incubation) and “detected although weakly” in assay [2] (setting [12]). Besides, the “F2 fluorescence over time” value in assay [4] (0.5 ppm, up to 120 minutes of incubation) is on record as “stable”; in assay [4] (1 ppm, after 120 minutes of incubation) it was “decrease of fluorescence”.
Turning to `CCOP(=S)(OCC)Oc1nc(Cl)c(Cl)cc1Cl` [chlorpyrifos], the results for the inhibition at 1 ppm in assay [1] (setting [9]) and in assay [1] (setting [10]) were 10% and 0%, respectively. Further, the Detection threshold in assay [3] (setting [11]) and in assay [5] (setting [13]) was 1 ppm each time.
As for `CCOC(=O)CC(SP(=S)(OC)OC)C(=O)OCC` (centres unmarked) [malathion], the inhibition at 1 ppm came to 17% in assay [1] (setting [9]) and 0% in assay [1] (setting [10]). The Detection threshold in assay [5] (setting [13]) amounted to 50 ppm.
With cyanure, the “Inhibition obtained at 1 ppm (followed by 10 min green light)” value in assay [1] (setting [14]) stood at 16%. The “Inhibition obtained at 1 ppm (10 min ambiant light)” value in assay [1] (setting [15]) is on record as 0%. The Detection threshold in assay [3] (setting [11]) came out at 0.16 ppm.
For the compound `COP(=O)(OC)O/C(C)=C/C(=O)N(C)C` [dicrotophos], the inhibition at 1 ppm in assay [1] (setting [9]) amounted to 17%; in assay [1] (setting [10]), 2%. This compound also returned a Detection threshold in assay [5] (setting [13]) of 235 ppm.
On to gramicidine, for which the “Inhibition obtained at 1 ppm (followed by 10 min green light)” value in assay [1] (setting [14]) stood at 15%. The “Inhibition obtained at 1 ppm (10 min ambiant light)” value in assay [1] (setting [15]) is reported as 0%.
In the case of `[Ni]` [nickel], in assay [2] (1 ppm, 120 minutes of incubation), the Detection result is “weakly detected”.
Take `CN(C)C(=O)Nc1ccc(Cl)c(Cl)c1` [Diuron]: the Detection threshold is listed as 0.006 ppm in assay [3] (setting [11]); below 0.0005 ppm in assay [3] (10-15 min. green light exposition at room temperature, neutral pH (pH 7), 5×10^6 cells/mL); “lower than 0.0005 ppm” in assay [3] (10-15 min. green light exposition at room temperature, neutral pH (pH 7), 5×10^6 cells/mL, listed as diuron); 0.002 ppm in assay [5] (setting [13]).
`O=C(O)CNCP(=O)(O)O` [glyphosate]: the results for the inhibition at 1 ppm in assay [1] (setting [9]) and in assay [1] (setting [10]) were 7% and 0%, respectively. Moreover, the Detection threshold in assay [3] (setting [11]) was found to be 100 ppm; in assay [5] (setting [13]) it was 50 ppm.
The compound `[Pb]` [Pb, Lead] came in with a Detection threshold in assay [3] (setting [11]) below 0.5 ppm. For the same compound, in assay [2] (setting [12]), the Detection entry is recorded as “detected although weakly”. For the same compound, the “Concentration of lead detected” value in assay [6] (15 minutes of incubation, with mixtures of additives) came to 1 ppm; in assay [6] (30 minutes of incubation, mixture Cu 0.1 ppm+Cd 1 ppm), 0.1 ppm; in assay [6] (120 minutes of incubation, additive mixtures Cu 0.1 ppm+Cd 0.5 ppm and Cu 0.25 ppm+Cd 1 ppm) it was 0.01 ppm. The “Concentration of lead whose detection was increased” value in assay [6] (60 minutes of incubation, all additive mixtures) is listed as at least 0.1 ppm.
`CCc1cccc(C)c1N(C(=O)CCl)C(C)COC` (centres unmarked) [metolachlor]: the inhibition at 1 ppm in assay [1] (setting [9]) was determined as 22%; in assay [1] (setting [10]), 0%.
Regarding Ammonia nitrogen, the Detection threshold in assay [3] (pH 11, 10-15 min. exposition to ambiant light at 35° C.) amounted to 1 ppm at pH 11; in assay [3] (pH 11, 10-15 min. green light exposition at room temperature), 1 ppm at pH 11; in assay [5] (pH 11), 1 ppm at pH 11; in assay [7] (pH up to 11), 1 ppm. Besides, the “Concentration at which the compound is detected” value in assay [7] (neutral pH) amounted to 100 ppm. The “Concentration of NH3 at which 20% inhibition was achieved” value was 100 ppm in assay [7] (pH 7), 5 ppm in assay [7] (pH 9), “lower than 2 ppm” in assay [7] (pH 11) and “lower than 2 ppm” in assay [7] (pH 12).
On to `CNC(=O)O/N=C/C(C)(C)SC` [aldicarbe], for which the “Inhibition obtained at 1 ppm (followed by 10 min green light)” value in assay [1] (setting [14]) came to 30%. The “Inhibition obtained at 1 ppm (10 min ambiant light)” value in assay [1] (setting [15]) is 0%.
In the case of `[Cu]` [Cu, Copper], in assay [3] (setting [11]), the Detection threshold amounted to 0.25 ppm. Besides, the Detection result in assay [2] (0.25 ppm, 60 minutes of incubation, without additives) is on record as “not detected”. The Inhibition in assay [2] (15 minutes of incubation, cadmium 1 ppm as additive) is reported as 30%; in assay [2] (15 minutes of incubation, without additive, ambient light 35° C.), 15%. Moreover, the “F2 fluorescence over time” value in assay [4] (0.1 ppm, up to 120 minutes of incubation) was “stable”; in assay [4] (0.25 ppm, up to 120 minutes of incubation), “stable”. Moreover, the Fluorescence emission result in assay [8] was “inhibited”.
In assay [3] (setting [11]), Mercury [Hg] had a Detection threshold of 0.22 ppm.
